In ChEMBL document CHEMBL5291721, “A preclinical secondary pharmacology resource illuminates target-adverse drug reaction associations of marketed drugs” (Nat Commun, 2023):

How the values were obtained:
Acetylcholinesterase = Acetylcholinesterase (Homo sapiens, UniProt P22303); type: functional
Thromboxane A2 receptor = target: T1, Thromboxane A2 receptor (Homo sapiens, UniProt P21731); type: functional, cell-based
T1 sequence (P21731 whole entry): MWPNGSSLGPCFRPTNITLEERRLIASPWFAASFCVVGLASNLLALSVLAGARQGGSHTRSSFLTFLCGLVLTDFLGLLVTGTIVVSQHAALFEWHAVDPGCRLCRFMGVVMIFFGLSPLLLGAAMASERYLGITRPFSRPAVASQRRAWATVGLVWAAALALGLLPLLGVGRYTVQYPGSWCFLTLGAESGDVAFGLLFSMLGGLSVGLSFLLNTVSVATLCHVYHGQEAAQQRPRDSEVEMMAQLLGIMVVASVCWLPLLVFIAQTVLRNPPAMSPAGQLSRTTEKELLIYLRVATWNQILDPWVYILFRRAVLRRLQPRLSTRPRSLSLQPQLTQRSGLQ

[1] = target: T2, 5-hydroxytryptamine receptor 1A (Homo sapiens, UniProt P08908)
T2 sequence (P08908 whole entry): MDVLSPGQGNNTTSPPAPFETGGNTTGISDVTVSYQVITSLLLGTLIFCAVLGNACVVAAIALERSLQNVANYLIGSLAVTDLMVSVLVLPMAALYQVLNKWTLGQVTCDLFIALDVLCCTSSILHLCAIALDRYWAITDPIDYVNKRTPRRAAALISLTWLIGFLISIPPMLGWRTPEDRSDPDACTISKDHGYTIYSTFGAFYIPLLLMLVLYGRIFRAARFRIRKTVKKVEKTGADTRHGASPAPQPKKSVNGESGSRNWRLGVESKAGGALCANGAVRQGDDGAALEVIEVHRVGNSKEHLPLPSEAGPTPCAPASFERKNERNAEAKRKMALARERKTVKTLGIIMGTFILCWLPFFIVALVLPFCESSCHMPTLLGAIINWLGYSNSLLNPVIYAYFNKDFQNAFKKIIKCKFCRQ

[2] = target: Synaptic vesicular amine transporter (Rattus norvegicus, UniProt Q01827); type: functional
[3] = target: T3, Muscarinic acetylcholine receptor M1 (Homo sapiens, UniProt P11229)
T3 sequence (P11229 whole entry): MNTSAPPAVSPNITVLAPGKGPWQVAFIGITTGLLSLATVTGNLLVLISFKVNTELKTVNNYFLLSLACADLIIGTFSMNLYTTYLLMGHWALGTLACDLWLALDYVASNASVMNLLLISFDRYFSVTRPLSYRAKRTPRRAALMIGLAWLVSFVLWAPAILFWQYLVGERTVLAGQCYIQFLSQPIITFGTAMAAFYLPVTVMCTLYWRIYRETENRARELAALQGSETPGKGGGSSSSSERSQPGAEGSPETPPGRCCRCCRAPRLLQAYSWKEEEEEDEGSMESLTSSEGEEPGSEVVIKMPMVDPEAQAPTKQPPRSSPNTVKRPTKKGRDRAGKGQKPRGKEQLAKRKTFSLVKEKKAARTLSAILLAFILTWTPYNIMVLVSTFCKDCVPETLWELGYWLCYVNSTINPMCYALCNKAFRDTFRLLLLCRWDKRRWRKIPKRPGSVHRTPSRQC

D(1A) dopamine receptor = D(1A) dopamine receptor (Homo sapiens, UniProt P21728)
Substance-P receptor = Substance-P receptor (Homo sapiens, UniProt P25103)
[4] = target: T4, Gastric inhibitory polypeptide receptor (Homo sapiens, UniProt P48546)
T4 sequence (P48546 whole entry): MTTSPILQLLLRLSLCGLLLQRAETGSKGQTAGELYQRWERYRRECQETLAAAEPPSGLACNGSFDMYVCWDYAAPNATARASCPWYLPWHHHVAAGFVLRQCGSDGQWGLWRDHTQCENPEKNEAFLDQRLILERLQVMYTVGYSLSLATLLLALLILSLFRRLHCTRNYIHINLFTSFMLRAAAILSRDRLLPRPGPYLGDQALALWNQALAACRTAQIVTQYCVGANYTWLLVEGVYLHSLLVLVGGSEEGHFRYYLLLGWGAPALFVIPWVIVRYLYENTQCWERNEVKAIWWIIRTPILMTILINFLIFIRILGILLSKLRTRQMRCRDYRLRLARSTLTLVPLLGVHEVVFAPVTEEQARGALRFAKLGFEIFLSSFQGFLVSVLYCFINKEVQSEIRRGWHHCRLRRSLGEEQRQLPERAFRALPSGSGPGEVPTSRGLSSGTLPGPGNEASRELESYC

Estrogen receptor beta = Estrogen receptor beta (Homo sapiens, UniProt Q92731)
[5] = target: T5, Corticotropin-releasing factor receptor 2 (Homo sapiens, UniProt Q13324)
T5 sequence (Q13324 whole entry): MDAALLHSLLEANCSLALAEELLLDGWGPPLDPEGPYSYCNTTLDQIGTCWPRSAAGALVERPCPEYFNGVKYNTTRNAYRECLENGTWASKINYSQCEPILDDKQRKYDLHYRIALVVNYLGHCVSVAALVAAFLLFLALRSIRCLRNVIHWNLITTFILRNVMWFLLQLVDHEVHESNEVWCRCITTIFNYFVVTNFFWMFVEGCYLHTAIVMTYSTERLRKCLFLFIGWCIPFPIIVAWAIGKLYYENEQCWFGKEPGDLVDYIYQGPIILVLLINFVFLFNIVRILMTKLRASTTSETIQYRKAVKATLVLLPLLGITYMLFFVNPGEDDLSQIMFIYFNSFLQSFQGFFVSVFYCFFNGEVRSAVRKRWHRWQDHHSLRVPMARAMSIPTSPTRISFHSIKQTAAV

[6] = target: Voltage-dependent N-type calcium channel subunit alpha-1B (Rattus norvegicus, UniProt Q02294); type: functional
Histamine H1 receptor = Histamine H1 receptor (Homo sapiens, UniProt P35367); type: functional, cell-based
Cannabinoid receptor 1 = Cannabinoid receptor 1 (Homo sapiens, UniProt P21554); type: functional
Further: assay procedure not described here.

Sequence of Acetylcholinesterase (P22303 whole entry): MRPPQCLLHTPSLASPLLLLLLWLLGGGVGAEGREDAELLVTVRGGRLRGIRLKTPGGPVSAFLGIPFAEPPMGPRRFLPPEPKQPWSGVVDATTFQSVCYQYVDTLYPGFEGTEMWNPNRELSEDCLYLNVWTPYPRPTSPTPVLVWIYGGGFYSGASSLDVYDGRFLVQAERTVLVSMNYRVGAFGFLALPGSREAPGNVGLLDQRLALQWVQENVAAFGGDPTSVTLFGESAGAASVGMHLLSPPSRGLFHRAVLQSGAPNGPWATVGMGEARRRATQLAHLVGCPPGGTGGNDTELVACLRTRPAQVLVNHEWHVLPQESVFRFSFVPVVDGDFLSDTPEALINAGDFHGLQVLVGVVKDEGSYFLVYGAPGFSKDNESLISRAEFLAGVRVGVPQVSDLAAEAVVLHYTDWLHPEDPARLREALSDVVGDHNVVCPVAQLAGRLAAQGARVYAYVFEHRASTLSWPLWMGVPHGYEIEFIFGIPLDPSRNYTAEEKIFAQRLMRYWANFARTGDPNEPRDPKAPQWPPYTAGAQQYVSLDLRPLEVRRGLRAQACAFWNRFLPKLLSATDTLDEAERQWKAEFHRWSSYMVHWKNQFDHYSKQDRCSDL
Sequence of D(1A) dopamine receptor (P21728 whole entry): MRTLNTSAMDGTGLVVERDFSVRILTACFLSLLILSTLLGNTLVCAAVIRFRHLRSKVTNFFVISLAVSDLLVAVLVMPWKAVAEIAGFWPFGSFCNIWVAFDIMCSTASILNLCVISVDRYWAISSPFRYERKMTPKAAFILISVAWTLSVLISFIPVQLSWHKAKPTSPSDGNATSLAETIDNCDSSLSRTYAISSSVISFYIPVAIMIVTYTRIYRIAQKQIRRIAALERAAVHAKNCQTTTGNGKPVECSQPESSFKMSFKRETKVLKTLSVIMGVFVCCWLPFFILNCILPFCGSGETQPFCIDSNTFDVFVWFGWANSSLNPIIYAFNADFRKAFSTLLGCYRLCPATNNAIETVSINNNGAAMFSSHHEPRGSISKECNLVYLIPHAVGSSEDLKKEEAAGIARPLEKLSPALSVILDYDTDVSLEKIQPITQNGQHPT
Sequence of Synaptic vesicular amine transporter (Q01827 whole entry): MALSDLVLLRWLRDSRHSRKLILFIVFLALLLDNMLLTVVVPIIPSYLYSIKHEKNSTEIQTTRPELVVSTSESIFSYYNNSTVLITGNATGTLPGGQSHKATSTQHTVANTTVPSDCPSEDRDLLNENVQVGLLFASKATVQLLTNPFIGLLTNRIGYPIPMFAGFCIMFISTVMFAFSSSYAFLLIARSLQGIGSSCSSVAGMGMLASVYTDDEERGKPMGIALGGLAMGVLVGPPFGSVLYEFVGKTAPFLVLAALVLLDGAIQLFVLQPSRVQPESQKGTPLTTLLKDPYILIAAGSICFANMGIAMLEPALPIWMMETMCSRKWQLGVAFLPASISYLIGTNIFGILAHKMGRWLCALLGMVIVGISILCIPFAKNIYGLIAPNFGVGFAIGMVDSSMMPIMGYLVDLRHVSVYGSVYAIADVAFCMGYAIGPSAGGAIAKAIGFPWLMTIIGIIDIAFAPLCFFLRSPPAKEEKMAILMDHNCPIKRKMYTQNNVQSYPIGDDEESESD
Sequence of Voltage-dependent N-type calcium channel subunit alpha-1B (Q02294 whole entry): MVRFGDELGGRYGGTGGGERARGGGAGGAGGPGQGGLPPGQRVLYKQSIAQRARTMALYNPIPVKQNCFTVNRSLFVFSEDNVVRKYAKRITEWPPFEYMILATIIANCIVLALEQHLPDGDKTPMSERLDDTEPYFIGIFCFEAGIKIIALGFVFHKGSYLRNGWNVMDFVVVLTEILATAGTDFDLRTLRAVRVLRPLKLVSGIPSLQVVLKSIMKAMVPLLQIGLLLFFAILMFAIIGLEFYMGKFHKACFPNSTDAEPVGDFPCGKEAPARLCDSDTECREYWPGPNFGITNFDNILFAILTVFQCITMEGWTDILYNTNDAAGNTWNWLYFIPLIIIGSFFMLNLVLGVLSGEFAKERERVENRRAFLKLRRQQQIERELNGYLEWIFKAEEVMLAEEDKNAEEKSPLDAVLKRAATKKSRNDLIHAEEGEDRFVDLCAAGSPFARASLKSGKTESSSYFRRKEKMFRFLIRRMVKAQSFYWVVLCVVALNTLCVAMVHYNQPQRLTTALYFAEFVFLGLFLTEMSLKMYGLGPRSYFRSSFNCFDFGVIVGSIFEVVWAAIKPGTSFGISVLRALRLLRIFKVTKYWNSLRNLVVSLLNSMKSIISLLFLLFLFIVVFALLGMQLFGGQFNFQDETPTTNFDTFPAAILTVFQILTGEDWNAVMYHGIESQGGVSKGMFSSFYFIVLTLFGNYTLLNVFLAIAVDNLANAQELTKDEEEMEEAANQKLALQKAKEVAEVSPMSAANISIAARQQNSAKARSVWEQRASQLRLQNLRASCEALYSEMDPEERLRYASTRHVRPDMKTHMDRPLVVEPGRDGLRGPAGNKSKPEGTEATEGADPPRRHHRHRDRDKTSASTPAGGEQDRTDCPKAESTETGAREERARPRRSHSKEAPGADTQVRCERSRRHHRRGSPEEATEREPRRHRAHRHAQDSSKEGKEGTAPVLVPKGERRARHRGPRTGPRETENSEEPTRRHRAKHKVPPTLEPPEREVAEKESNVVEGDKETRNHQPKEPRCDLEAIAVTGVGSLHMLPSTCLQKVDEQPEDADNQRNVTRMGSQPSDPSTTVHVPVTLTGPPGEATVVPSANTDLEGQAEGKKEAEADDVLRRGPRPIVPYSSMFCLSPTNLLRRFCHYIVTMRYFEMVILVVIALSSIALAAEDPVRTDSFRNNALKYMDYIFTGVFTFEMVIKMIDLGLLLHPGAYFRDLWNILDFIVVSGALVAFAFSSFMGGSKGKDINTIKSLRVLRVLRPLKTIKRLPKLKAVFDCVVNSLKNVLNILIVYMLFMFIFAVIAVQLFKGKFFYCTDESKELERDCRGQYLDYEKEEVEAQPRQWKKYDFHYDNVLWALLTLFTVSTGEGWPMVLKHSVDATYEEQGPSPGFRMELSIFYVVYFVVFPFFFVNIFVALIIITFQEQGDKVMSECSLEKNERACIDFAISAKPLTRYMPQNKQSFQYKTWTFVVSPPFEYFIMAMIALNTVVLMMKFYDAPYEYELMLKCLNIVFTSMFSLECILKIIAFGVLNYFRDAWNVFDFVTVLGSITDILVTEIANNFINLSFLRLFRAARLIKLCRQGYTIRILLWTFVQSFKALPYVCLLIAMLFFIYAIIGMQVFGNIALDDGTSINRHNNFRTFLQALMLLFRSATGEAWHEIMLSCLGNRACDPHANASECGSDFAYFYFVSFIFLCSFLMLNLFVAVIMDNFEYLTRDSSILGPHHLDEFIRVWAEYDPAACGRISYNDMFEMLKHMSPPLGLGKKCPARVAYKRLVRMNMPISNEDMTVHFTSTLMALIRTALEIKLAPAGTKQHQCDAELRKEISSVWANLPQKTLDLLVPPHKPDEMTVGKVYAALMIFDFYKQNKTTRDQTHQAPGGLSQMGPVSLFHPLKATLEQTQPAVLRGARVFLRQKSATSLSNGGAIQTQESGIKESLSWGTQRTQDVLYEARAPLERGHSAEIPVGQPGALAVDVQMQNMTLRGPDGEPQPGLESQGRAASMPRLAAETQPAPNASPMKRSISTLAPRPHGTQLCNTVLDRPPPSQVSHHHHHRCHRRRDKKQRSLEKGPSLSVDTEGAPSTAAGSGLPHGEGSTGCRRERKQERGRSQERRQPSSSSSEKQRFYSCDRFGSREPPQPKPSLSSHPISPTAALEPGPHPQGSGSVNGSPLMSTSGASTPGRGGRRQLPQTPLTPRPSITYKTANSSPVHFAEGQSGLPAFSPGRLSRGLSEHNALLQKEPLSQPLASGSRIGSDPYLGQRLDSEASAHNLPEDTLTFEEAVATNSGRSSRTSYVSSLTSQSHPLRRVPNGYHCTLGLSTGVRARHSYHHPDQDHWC
Sequence of Substance-P receptor (P25103 whole entry): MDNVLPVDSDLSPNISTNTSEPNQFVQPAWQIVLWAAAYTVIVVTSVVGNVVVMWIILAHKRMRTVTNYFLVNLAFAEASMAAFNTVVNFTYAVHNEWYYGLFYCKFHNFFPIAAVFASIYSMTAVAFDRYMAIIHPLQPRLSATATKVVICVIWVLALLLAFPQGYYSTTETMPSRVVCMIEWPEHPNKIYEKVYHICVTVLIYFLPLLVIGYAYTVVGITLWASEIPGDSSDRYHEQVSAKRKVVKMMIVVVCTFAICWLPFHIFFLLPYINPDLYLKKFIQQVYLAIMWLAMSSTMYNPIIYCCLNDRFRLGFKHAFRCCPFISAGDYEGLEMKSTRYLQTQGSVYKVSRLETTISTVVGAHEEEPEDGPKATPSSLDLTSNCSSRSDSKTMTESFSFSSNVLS
Sequence of Histamine H1 receptor (P35367 whole entry): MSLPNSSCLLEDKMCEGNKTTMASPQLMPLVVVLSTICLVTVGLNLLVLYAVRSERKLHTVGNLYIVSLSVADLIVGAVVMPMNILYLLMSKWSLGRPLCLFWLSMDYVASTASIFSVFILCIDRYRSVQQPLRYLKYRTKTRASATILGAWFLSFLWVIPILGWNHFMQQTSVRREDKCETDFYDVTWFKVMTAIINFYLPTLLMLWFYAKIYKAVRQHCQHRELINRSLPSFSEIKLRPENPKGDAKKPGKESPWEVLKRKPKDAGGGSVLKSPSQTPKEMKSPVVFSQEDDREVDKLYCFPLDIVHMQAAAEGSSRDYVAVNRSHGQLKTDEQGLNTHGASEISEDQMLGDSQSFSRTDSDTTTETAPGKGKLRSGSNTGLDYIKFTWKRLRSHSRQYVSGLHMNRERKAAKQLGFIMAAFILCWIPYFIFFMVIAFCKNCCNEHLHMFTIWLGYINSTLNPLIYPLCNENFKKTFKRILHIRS

How did the AC50 (Acetylcholinesterase) turn out when `c1cnc2cc3c(cc2n1)[C@@H]1CNC[C@H]3C1` [VARENICLINE] was run?
The AC50 was > 30 µM.

What about the AC50 (Thromboxane A2 receptor) of the same compound?
Its AC50 is > 30 µM.

For `O=C(O)COC(=O)Cc1ccccc1Nc1c(Cl)cccc1Cl` [ACECLOFENAC], which AC50 [1] is on record?
The AC50 was > 10 µM.

How did the AC50 (Acetylcholinesterase) turn out when `Cn1cnc2c(F)c(Nc3ccc(Br)cc3F)c(C(=O)NOCCO)cc21` [BINIMETINIB] was run?
The AC50 was > 30 µM.

And the AC50 [2]?
The AC50 was > 30 µM.

And the AC50 (Thromboxane A2 receptor)?
The AC50 was > 30 µM.

What does the source list for `CCCCCCO[C@@H](C)c1cccc(-c2csc(NC(=O)c3cc(Cl)c(/C=C(\C)C(=O)O)c(Cl)c3)n2)c1OC` [LUSUTROMBOPAG]?
AC50 [3]: > 30 µM; AC50 [2]: 4.1 µM

`O=C(Cc1cccs1)N[C@@H]1C(=O)N2C(C(=O)[O-])=C(C[n+]3ccccc3)CS[C@H]12` [CEPHALORIDINE] was tested. Which AC50 [3] did it give?
Its AC50 is > 30 µM.

For `Nc1c2c(nc3ccccc13)CCCC2O` (stereo unspecified) [VELNACRINE], which AC50 (Thromboxane A2 receptor) is on record?
Its AC50 is > 30 µM.

Which AC50 (Acetylcholinesterase) does the source give for `C[C@H](CCC(=O)O)[C@H]1CC[C@H]2[C@@H]3[C@H](O)C[C@@H]4C[C@H](O)CC[C@]4(C)[C@H]3CC[C@]12C` [CHENODIOL] here?
The AC50 was > 30 µM.

Which AC50 (D(1A) dopamine receptor) does the source give for `Nc1nnc(-c2cccc(Cl)c2Cl)c(N)n1` [LAMOTRIGINE] here?
The AC50 was > 10 µM.

What about the AC50 (Substance-P receptor) of the same compound?
The AC50 was > 10 µM.

What about the AC50 [4] of the same compound?
The AC50 was > 30 µM.

And the AC50 [2]?
The AC50 was 18 µM.

What about the AC50 (Estrogen receptor beta) of the same compound?
The AC50 was > 30 µM.

What about the AC50 [1] of the same compound?
The AC50 was > 10 µM.

And the AC50 [5]?
The AC50 was > 30 µM.

And the AC50 [6]?
The AC50 was > 10 µM.

`CCCCCCCC/C=C\CCCCCCCC(=O)O` [OLEIC ACID] was tested. Which AC50 [2] did it give?
Its AC50 is 4.7 µM.

`O=c1[nH]c2ccccc2n1CCN1CCN(c2cccc(C(F)(F)F)c2)CC1` [FLIBANSERIN] was tested. Which AC50 [2] did it give?
The AC50 was 0.072 µM.

How did the AC50 (Histamine H1 receptor) turn out when `C#CCN(C)Cc1ccccc1` [PARGYLINE] was run?
The AC50 was > 30 µM.

And the AC50 [3]?
The AC50 was > 30 µM.

With `CN(C)CCCC1(c2ccc(F)cc2)OCc2cc(C#N)ccc21` (stereo unspecified) [CITALOPRAM] as the compound, how does the AC50 (Substance-P receptor) read?
The AC50 was > 10 µM.

And the AC50 [4]?
Its AC50 is > 30 µM.

And the AC50 (Estrogen receptor beta)?
The AC50 was > 30 µM.

What about the AC50 [1] of the same compound?
Its AC50 is > 10 µM.

What about the AC50 [5] of the same compound?
Its AC50 is > 30 µM.

What about the AC50 [6] of the same compound?
The AC50 was > 10 µM.

Which AC50 (D(1A) dopamine receptor) does the source give for `NCC1(CC(=O)O)CCCCC1` [GABAPENTIN] here?
The AC50 was > 10 µM.

What about the AC50 (Substance-P receptor) of the same compound?
The AC50 was > 10 µM.

What about the AC50 (Acetylcholinesterase) of the same compound?
The AC50 was > 30 µM.

What about the AC50 [4] of the same compound?
The AC50 was > 30 µM.

And the AC50 (Thromboxane A2 receptor)?
Its AC50 is > 30 µM.

And the AC50 (Cannabinoid receptor 1)?
Its AC50 is > 10 µM.

What about the AC50 [1] of the same compound?
The AC50 was > 10 µM.

What about the AC50 [5] of the same compound?
Its AC50 is > 30 µM.

What does the source list for `CC(=O)SCC(Cc1ccccc1)C(=O)NCC(=O)OCc1ccccc1` (stereo unspecified) [RACECADOTRIL]?
AC50 (D(1A) dopamine receptor): > 10 µM; AC50 [1]: > 10 µM; AC50 [6]: > 10 µM

Which AC50 (Acetylcholinesterase) does the source give for `C[C@@H](O)[C@H]1C(=O)N2C(C(=O)O)=C(SCCN=CN)C[C@H]12` [IMIPENEM ANHYDROUS] here?
The AC50 was > 300 µM.

What about the AC50 (Thromboxane A2 receptor) of the same compound?
Its AC50 is > 300 µM.

With `CO[C@@H]1[C@@H](OC(N)=O)[C@@H](O)[C@H](Oc2ccc3c(O)c(NC(=O)c4ccc(O)c(CC=C(C)C)c4)c(=O)oc3c2C)OC1(C)C` [NOVOBIOCIN] as the compound, how does the AC50 (Acetylcholinesterase) read?
The AC50 was > 30 µM.

And the AC50 (Thromboxane A2 receptor)?
Its AC50 is > 30 µM.

What does the source list for `OCCOCCN1CCN(C(c2ccccc2)c2ccc(Cl)cc2)CC1` (stereo unspecified) [HYDROXYZINE]?
AC50 (D(1A) dopamine receptor): > 10 µM; AC50 (Substance-P receptor): > 10 µM; AC50 (Histamine H1 receptor): > 30 µM; AC50 [4]: > 30 µM; AC50 [1]: > 10 µM; AC50 [5]: > 30 µM; AC50 [6]: > 10 µM
